# Experimental data: US11076594B2, “Pyrazolone compound or salt thereof, preparation method therefor, herbicide composition and use thereof” (QINGDAO KINGAGROOT CHEMICAL COMPOUNDS CO., LTD., priority 2015, dated 2021)
# Experiments:
# Format in all cases: in vivo
# Settings in all cases: post-emergence spray at 4-5 leaf stage, 250 g/ha active ingredient with 450 kg/ha water, rated after 3 weeks in greenhouse
# rice = assay: post-emergence stage experiment, crop (Table 1)
# Experimental: (§1) The activity level standard of harmful plant destruction (i.e. growth control rate) is as follows: The above described growth control rate is fresh weight control rate. Monocotyledonous and dicotyledonous weed seeds and main crop seeds (i.e. wheat, corn, rice, soybean, cotton, oilseed, millet and sorghum.) were put into a plastic pot loaded with soil. Then covered with 0.5-2 cm soil, the seeds were allowed to grow in good greenhouse environment. The test plants were treated at 4-5 leaf stage 2-3 weeks after sowing. The test compounds of the invention were dissolved with acetone respectively, then added with 80 tween and diluted by certain amount of water to certain concentration. The solution was sprayed to the plants with a sprayer. Then the plants were cultured for 3 weeks in the greenhouse.
# wheat = assay: post-emergence stage experiment, crop (Table 1)
# Experimental: as §1
# corn = assay: post-emergence stage experiment, crop (Table 1)
# Experimental: as §1
# echinochloa = assay: weed control effect in post-emergence stage (Table 1); set-up: key: Level 10: completely dead; Level 9: above 95% growth control rate; Level 8: above 90% growth control rate; Level 7: above 80% growth control rate; Level 6: above 70% growth control rate; Level 5: above 60% growth control rate; Level 4: above 50% growth control rate; Level 3: above 20% growth control rate; Level 2: 5%-20% growth control rate; Level 1: below 5% growth control rate
# Experimental: as §1
# bidens bipinnata = assay: as above; set-up: key: Level 10: completely dead; Level 9: above 95% growth control rate; Level 8: above 90% growth control rate; Level 7: above 80% growth control rate; Level 6: above 70% growth control rate; Level 5: above 60% growth control rate; Level 4: above 50% growth control rate; Level 3: above 20% growth control rate; Level 2: 5%-20% growth control rate; Level 1: below 5% growth control rate
# Experimental: as §1
# foxtail = assay: as above; set-up: key: Level 10: completely dead; Level 9: above 95% growth control rate; Level 8: above 90% growth control rate; Level 7: above 80% growth control rate; Level 6: above 70% growth control rate; Level 5: above 60% growth control rate; Level 4: above 50% growth control rate; Level 3: above 20% growth control rate; Level 2: 5%-20% growth control rate; Level 1: below 5% growth control rate
# Experimental: as §1
# crab grass = assay: as above; set-up: key: Level 10: completely dead; Level 9: above 95% growth control rate; Level 8: above 90% growth control rate; Level 7: above 80% growth control rate; Level 6: above 70% growth control rate; Level 5: above 60% growth control rate; Level 4: above 50% growth control rate; Level 3: above 20% growth control rate; Level 2: 5%-20% growth control rate; Level 1: below 5% growth control rate
# Experimental: as §1
# rorippa indica = assay: as above; set-up: key: Level 10: completely dead; Level 9: above 95% growth control rate; Level 8: above 90% growth control rate; Level 7: above 80% growth control rate; Level 6: above 70% growth control rate; Level 5: above 60% growth control rate; Level 4: above 50% growth control rate; Level 3: above 20% growth control rate; Level 2: 5%-20% growth control rate; Level 1: below 5% growth control rate
# Experimental: as §1
# Indian mallow = assay: as above; set-up: key: Level 10: completely dead; Level 9: above 95% growth control rate; Level 8: above 90% growth control rate; Level 7: above 80% growth control rate; Level 6: above 70% growth control rate; Level 5: above 60% growth control rate; Level 4: above 50% growth control rate; Level 3: above 20% growth control rate; Level 2: 5%-20% growth control rate; Level 1: below 5% growth control rate
# Experimental: as §1
SMILES,"effect on crop, Rice (level) (rice)","effect on crop, Wheat (level) (wheat)","effect on crop, Corn (level) (corn)","weed control effect, Echinochloa (level) (echinochloa)","weed control effect, Bidens bipinnata (level) (bidens bipinnata)","weed control effect, Green foxtail (level) (foxtail)","weed control effect, Crab grass (level) (crab grass)","weed control effect, Rorippa indica (level) (rorippa indica)","weed control effect, Indian mallow (level) (Indian mallow)"
Cn1ncc(C(=O)c2ccc(C(F)(F)F)c(N3CCCC3=O)c2Cl)c1O [Compound 014],3 (Level 3: above 20% growth control rate),3 (Level 3: above 20% growth control rate),8 (Level 8: above 90% growth control rate),5 (Level 5: above 60% growth control rate),8 (Level 8: above 90% growth control rate),10,10,10,7 (Level 7: above 80% growth control rate)
CCOc1c(C(=O)Oc2c(C(=O)c3ccc(C(F)(F)F)c(N4CCCC4=O)c3Cl)cnn2C)cnn1C [Compound 015],2 (Level 2: 5%-20% growth control rate),2 (Level 2: 5%-20% growth control rate),9 (Level 9: above 95% growth control rate),5 (Level 5: above 60% growth control rate),8 (Level 8: above 90% growth control rate),10,9 (Level 9: above 95% growth control rate),9 (Level 9: above 95% growth control rate),8 (Level 8: above 90% growth control rate)
Cn1cc(C(=O)Oc2c(C(=O)c3ccc(C(F)(F)F)c(N4CCCC4=O)c3Cl)cnn2C)cn1 [Compound 017],7 (Level 7: above 80% growth control rate),1 (Level 1: below 5% growth control rate),4 (Level 4: above 50% growth control rate),6 (Level 6: above 70% growth control rate),5 (Level 5: above 60% growth control rate),10,10,,10
Cc1nn(C)c(OC(=O)c2cnn(C)c2)c1C(=O)c1ccc(C(F)(F)F)c(N2CCCCC2=O)c1Cl [Compound 039],6 (Level 6: above 70% growth control rate),,2 (Level 2: 5%-20% growth control rate),10,2 (Level 2: 5%-20% growth control rate),10,9 (Level 9: above 95% growth control rate),10,10
Cn1nc(C2CC2)c(C(=O)c2ccc(C(F)(F)F)c(N3CCCCCC3=O)c2Cl)c1O [Compound 059],3 (Level 3: above 20% growth control rate),2 (Level 2: 5%-20% growth control rate),1 (Level 1: below 5% growth control rate),6 (Level 6: above 70% growth control rate),,9 (Level 9: above 95% growth control rate),5 (Level 5: above 60% growth control rate),10,10
Cc1nn(C)cc1C(=O)Oc1c(C(=O)c2ccc(C(F)(F)F)c(N3CCCCCC3=O)c2Cl)c(C2CC2)nn1C [Compound 062],5 (Level 5: above 60% growth control rate),3 (Level 3: above 20% growth control rate),1 (Level 1: below 5% growth control rate),7 (Level 7: above 80% growth control rate),,3 (Level 3: above 20% growth control rate),8 (Level 8: above 90% growth control rate),10,10
Cn1cc(C(=O)Oc2c(C(=O)c3ccc(C(F)(F)F)c(-n4cccn4)c3Cl)cnn2C)cn1 [Compound 066],3 (Level 3: above 20% growth control rate),0,3 (Level 3: above 20% growth control rate),6 (Level 6: above 70% growth control rate),6 (Level 6: above 70% growth control rate),10,6 (Level 6: above 70% growth control rate),,10
Cc1nn(C)cc1C(=O)Oc1c(C(=O)c2ccc(C(F)(F)F)c(-n3cccn3)c2Cl)c(C2CC2)nn1C [Compound 075],7 (Level 7: above 80% growth control rate),2 (Level 2: 5%-20% growth control rate),3 (Level 3: above 20% growth control rate),6 (Level 6: above 70% growth control rate),,10,4 (Level 4: above 50% growth control rate),10,10
Cn1cc(C(=O)Oc2c(C(=O)c3ccc(C(F)(F)F)c(-n4cccn4)c3Cl)c(C3CC3)nn2C)cn1 [Compound 076],9 (Level 9: above 95% growth control rate),2 (Level 2: 5%-20% growth control rate),4 (Level 4: above 50% growth control rate),7 (Level 7: above 80% growth control rate),4 (Level 4: above 50% growth control rate),10,5 (Level 5: above 60% growth control rate),,10
Cc1cnn(-c2c(C(F)(F)F)ccc(C(=O)c3cnn(C)c3OC(=O)c3cnn(C)c3)c2Cl)c1 [Compound 083],2 (Level 2: 5%-20% growth control rate),0,4 (Level 4: above 50% growth control rate),6 (Level 6: above 70% growth control rate),5 (Level 5: above 60% growth control rate),8 (Level 8: above 90% growth control rate),6 (Level 6: above 70% growth control rate),,10
Cc1cnn(-c2c(C(F)(F)F)ccc(C(=O)c3c(C)nn(C)c3OC(=O)c3cnn(C)c3)c2Cl)c1 [Compound 087],6 (Level 6: above 70% growth control rate),0,4 (Level 4: above 50% growth control rate),6 (Level 6: above 70% growth control rate),5 (Level 5: above 60% growth control rate),10,9 (Level 9: above 95% growth control rate),,10
Cc1cnn(-c2c(C(F)(F)F)ccc(C(=O)c3c(C4CC4)nn(C)c3OC(=O)c3cnn(C)c3)c2Cl)c1 [Compound 091],6 (Level 6: above 70% growth control rate),1 (Level 1: below 5% growth control rate),1 (Level 1: below 5% growth control rate),6 (Level 6: above 70% growth control rate),5 (Level 5: above 60% growth control rate),7 (Level 7: above 80% growth control rate),2 (Level 2: 5%-20% growth control rate),,10
